Assay results from ChEMBL document CHEMBL1144039, “Antioxidant capacity of BO-653, 2,3-dihydro-5-hydroxy-4,6-di-tert-butyl-2,2-dipentylbenzofuran, and uric acid as evaluated by ORAC method and inhibition of lipid peroxidation” (2008).

Key:
[1] = Antioxidant activity assessed as oxygen radical scavenging activity in presence of human plasma by ORAC method relative to control; assay type: functional, cell-free
Plasma = experiment: Antioxidant activity in human plasma assessed as inhibition of cholesteryl ester hydroperoxide formation after 60 mins relative to control; assay type: functional

| Compound | Ratio AUC [1] | Ratio (Plasma) |
| --- | --- | --- |
| CCCCCC1(CCCCC)Cc2c(cc(C(C)(C)C)c(O)c2C(C)(C)C)O1 [BO-653] | 1.23 | 0.23 |
| Oc1nc(O)c2nc(O)[nH]c2n1 [URIC ACID] | 1.52 | 0.78 |
